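Cells were grown in 96-well plates and exposed to each compound for 48 hours at five concentrations; endpoints were interpolated linearly between bracketing concentrations, or set to the highest concentration if not reached. TGI: total growth inhibition.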
Columns and labels:
Assay in all cases: DTP human tumour cell line panel, 48 h
HCT-15 colon = tested on: HCT-15 colon
NCI-H460 lung = tested on: NCI-H460 lung
SF-268 CNS = tested on: SF-268 CNS
HOP-62 NSCLC = tested on: HOP-62 NSCLC
HOP-92 NSCLC = tested on: HOP-92 NSCLC
PC-3 prostate = tested on: PC-3 prostate
M14 melanoma = tested on: M14 melanoma
NCI-H23 lung = tested on: NCI-H23 lung
UO-31 renal = tested on: UO-31 renal
TK-10 renal = tested on: TK-10 renal
A549 NSCLC = tested on: A549 NSCLC
OVCAR-5 ovarian = tested on: OVCAR-5 ovarian
NCI-H226 lung = tested on: NCI-H226 lung
UACC-62 melanoma = tested on: UACC-62 melanoma
CCRF-CEM leukemia = tested on: CCRF-CEM leukemia
UACC-257 melanoma = tested on: UACC-257 melanoma
RXF 393 renal = tested on: RXF 393 renal
NCI/ADR-RES ovarian = tested on: NCI/ADR-RES ovarian
COLO 205 colon = tested on: COLO 205 colon
RPMI-8226 leukemia = tested on: RPMI-8226 leukemia
MOLT-4 leukemia = tested on: MOLT-4 leukemia
SN12C renal = tested on: SN12C renal
EKVX NSCLC = tested on: EKVX NSCLC
DU-145 prostate = tested on: DU-145 prostate
ACHN renal = tested on: ACHN renal
T-47D breast = tested on: T-47D breast
A498 renal = tested on: A498 renal
IGROV1 ovarian = tested on: IGROV1 ovarian
BT-549 breast = tested on: BT-549 breast
HCC-2998 colon = tested on: HCC-2998 colon
OVCAR-8 ovarian = tested on: OVCAR-8 ovarian
NCI-H522 lung = tested on: NCI-H522 lung
HCT-116 colon = tested on: HCT-116 colon
SF-295 CNS = tested on: SF-295 CNS
OVCAR-3 ovarian = tested on: OVCAR-3 ovarian
HT29 colon = tested on: HT29 colon
U251 CNS = tested on: U251 CNS
HL-60(TB) leukemia = tested on: HL-60(TB) leukemia
SK-MEL-2 melanoma = tested on: SK-MEL-2 melanoma
MCF7 breast = tested on: MCF7 breast
CAKI-1 renal = tested on: CAKI-1 renal
SF-539 CNS = tested on: SF-539 CNS
HS 578T breast = tested on: HS 578T breast
SK-OV-3 ovarian = tested on: SK-OV-3 ovarian
OVCAR-4 ovarian = tested on: OVCAR-4 ovarian
SW-620 colon = tested on: SW-620 colon
SNB-19 CNS = tested on: SNB-19 CNS
786-0 renal = tested on: 786-0 renal
MDA-N = tested on: MDA-N
MALME-3M melanoma = tested on: MALME-3M melanoma
SK-MEL-5 melanoma = tested on: SK-MEL-5 melanoma
SK-MEL-28 melanoma = tested on: SK-MEL-28 melanoma
KM12 colon = tested on: KM12 colon
MDA-MB-231 breast = tested on: MDA-MB-231 breast
SR leukemia = tested on: SR leukemia
MDA-MB-435 = tested on: MDA-MB-435
LOX IMVI melanoma = tested on: LOX IMVI melanoma
SNB-75 CNS = tested on: SNB-75 CNS
K-562 leukemia = tested on: K-562 leukemia

Structure (SMILES): Cc1ccsc1C(=S)Nc1ccc(Cl)c(/C=N/OC(C)(C)C)c1
- TGI (HCT-15 colon): > 100 µM
- TGI (NCI-H460 lung): > 100 µM
- TGI (SF-268 CNS): > 100 µM
- TGI (HOP-62 NSCLC): > 100 µM
- TGI (HOP-92 NSCLC): 48.8 µM
- TGI (PC-3 prostate): > 100 µM
- TGI (M14 melanoma): > 100 µM
- TGI (NCI-H23 lung): > 100 µM
- TGI (UO-31 renal): > 100 µM
- TGI (TK-10 renal): 41.1 µM
- TGI (A549 NSCLC): > 100 µM
- TGI (OVCAR-5 ovarian): > 100 µM
- TGI (NCI-H226 lung): > 100 µM
- TGI (UACC-62 melanoma): > 100 µM
- TGI (CCRF-CEM leukemia): > 100 µM
- TGI (UACC-257 melanoma): 69.1 µM
- TGI (RXF 393 renal): 36.6 µM
- TGI (NCI/ADR-RES ovarian): > 100 µM
- TGI (COLO 205 colon): 33.7 µM
- TGI (RPMI-8226 leukemia): > 100 µM
- TGI (MOLT-4 leukemia): > 100 µM
- TGI (SN12C renal): > 100 µM
- TGI (EKVX NSCLC): > 100 µM
- TGI (DU-145 prostate): > 100 µM
- TGI (ACHN renal): 75.7 µM
- TGI (T-47D breast): > 100 µM
- TGI (A498 renal): 41.1 µM
- TGI (IGROV1 ovarian): > 100 µM
- TGI (BT-549 breast): 59.8 µM
- TGI (HCC-2998 colon): 48.5 µM
- TGI (OVCAR-8 ovarian): > 100 µM
- TGI (NCI-H522 lung): > 100 µM
- TGI (HCT-116 colon): > 100 µM
- TGI (SF-295 CNS): > 100 µM
- TGI (OVCAR-3 ovarian): > 100 µM
- TGI (HT29 colon): 27.1 µM
- TGI (U251 CNS): 79.3 µM
- TGI (HL-60(TB) leukemia): 74.7 µM
- TGI (SK-MEL-2 melanoma): > 100 µM
- TGI (MCF7 breast): > 100 µM
- TGI (CAKI-1 renal): > 100 µM
- TGI (SF-539 CNS): > 100 µM
- TGI (HS 578T breast): > 100 µM
- TGI (SK-OV-3 ovarian): > 100 µM
- TGI (OVCAR-4 ovarian): > 100 µM
- TGI (SW-620 colon): > 100 µM
- TGI (SNB-19 CNS): > 100 µM
- TGI (786-0 renal): 57.2 µM
- TGI (MDA-N): > 100 µM
- TGI (MALME-3M melanoma): > 100 µM
- TGI (SK-MEL-5 melanoma): > 100 µM
- TGI (SK-MEL-28 melanoma): > 100 µM
- TGI (KM12 colon): > 100 µM
- TGI (MDA-MB-231 breast): 69.9 µM
- TGI (SR leukemia): 61.7 µM
- TGI (MDA-MB-435): > 100 µM
- TGI (LOX IMVI melanoma): 48.8 µM

Structure (SMILES): COC(=O)C1SC(SC)=NC12c1ccccc1Nc1ccccc12 (configuration not stated)
- TGI (HCT-15 colon): > 100 µM
- TGI (NCI-H460 lung): 56.1 µM
- TGI (SF-268 CNS): > 100 µM
- TGI (HOP-62 NSCLC): > 100 µM
- TGI (HOP-92 NSCLC): 69.8 µM
- TGI (PC-3 prostate): 87 µM
- TGI (M14 melanoma): 40.1 µM
- TGI (NCI-H23 lung): 38.9 µM
- TGI (UO-31 renal): > 100 µM
- TGI (TK-10 renal): > 100 µM
- TGI (A549 NSCLC): > 100 µM
- TGI (OVCAR-5 ovarian): > 100 µM
- TGI (NCI-H226 lung): > 100 µM
- TGI (UACC-62 melanoma): 34 µM
- TGI (CCRF-CEM leukemia): > 100 µM
- TGI (UACC-257 melanoma): 84.6 µM
- TGI (SNB-75 CNS): > 100 µM
- TGI (RXF 393 renal): > 100 µM
- TGI (NCI/ADR-RES ovarian): > 100 µM
- TGI (COLO 205 colon): 39.3 µM
- TGI (RPMI-8226 leukemia): 49.4 µM
- TGI (K-562 leukemia): > 100 µM
- TGI (MOLT-4 leukemia): 71.1 µM
- TGI (SN12C renal): > 100 µM
- TGI (EKVX NSCLC): > 100 µM
- TGI (DU-145 prostate): > 100 µM
- TGI (ACHN renal): > 100 µM
- TGI (T-47D breast): > 100 µM
- TGI (A498 renal): > 100 µM
- TGI (IGROV1 ovarian): > 100 µM
- TGI (BT-549 breast): 58.6 µM
- TGI (HCC-2998 colon): 74.3 µM
- TGI (OVCAR-8 ovarian): > 100 µM
- TGI (NCI-H522 lung): 49.3 µM
- TGI (HCT-116 colon): > 100 µM
- TGI (SF-295 CNS): > 100 µM
- TGI (OVCAR-3 ovarian): 45.8 µM
- TGI (HT29 colon): > 100 µM
- TGI (U251 CNS): 66.6 µM
- TGI (HL-60(TB) leukemia): 87.9 µM
- TGI (SK-MEL-2 melanoma): 47.3 µM
- TGI (MCF7 breast): 82.7 µM
- TGI (CAKI-1 renal): > 100 µM
- TGI (SF-539 CNS): 35.4 µM
- TGI (HS 578T breast): > 100 µM
- TGI (SK-OV-3 ovarian): > 100 µM
- TGI (OVCAR-4 ovarian): > 100 µM
- TGI (SW-620 colon): > 100 µM
- TGI (SNB-19 CNS): > 100 µM
- TGI (786-0 renal): > 100 µM
- TGI (MDA-N): 70.6 µM
- TGI (MALME-3M melanoma): 65.1 µM
- TGI (SK-MEL-5 melanoma): 31 µM
- TGI (SK-MEL-28 melanoma): 48.5 µM
- TGI (KM12 colon): > 100 µM
- TGI (SR leukemia): 53.4 µM
- TGI (MDA-MB-435): 67.8 µM
- TGI (LOX IMVI melanoma): 32.2 µM

Structure (SMILES): COC(=O)c1ccccc1CC1Cc2ccc3c(c2C1=O)CCCC3 (configuration not stated)
- TGI (HCT-15 colon): > 100 µM
- TGI (NCI-H460 lung): > 100 µM
- TGI (SF-268 CNS): > 100 µM
- TGI (HOP-62 NSCLC): > 100 µM
- TGI (PC-3 prostate): > 100 µM
- TGI (M14 melanoma): > 100 µM
- TGI (NCI-H23 lung): > 100 µM
- TGI (UO-31 renal): > 100 µM
- TGI (TK-10 renal): > 100 µM
- TGI (A549 NSCLC): > 100 µM
- TGI (OVCAR-5 ovarian): > 100 µM
- TGI (NCI-H226 lung): > 100 µM
- TGI (UACC-62 melanoma): > 100 µM
- TGI (CCRF-CEM leukemia): > 86.5 µM
- TGI (UACC-257 melanoma): > 100 µM
- TGI (SNB-75 CNS): > 100 µM
- TGI (NCI/ADR-RES ovarian): > 84.9 µM
- TGI (COLO 205 colon): > 100 µM
- TGI (RPMI-8226 leukemia): > 75.5 µM
- TGI (K-562 leukemia): > 100 µM
- TGI (MOLT-4 leukemia): 46.5 µM
- TGI (SN12C renal): > 100 µM
- TGI (EKVX NSCLC): > 100 µM
- TGI (DU-145 prostate): > 100 µM
- TGI (ACHN renal): > 100 µM
- TGI (T-47D breast): > 78.1 µM
- TGI (A498 renal): > 100 µM
- TGI (IGROV1 ovarian): > 100 µM
- TGI (BT-549 breast): > 100 µM
- TGI (HCC-2998 colon): > 100 µM
- TGI (OVCAR-8 ovarian): > 100 µM
- TGI (NCI-H522 lung): > 100 µM
- TGI (HCT-116 colon): > 100 µM
- TGI (SF-295 CNS): > 100 µM
- TGI (OVCAR-3 ovarian): > 100 µM
- TGI (HT29 colon): > 100 µM
- TGI (U251 CNS): > 100 µM
- TGI (HL-60(TB) leukemia): > 100 µM
- TGI (SK-MEL-2 melanoma): > 76.3 µM
- TGI (MCF7 breast): > 100 µM
- TGI (CAKI-1 renal): > 100 µM
- TGI (SF-539 CNS): > 100 µM
- TGI (HS 578T breast): > 100 µM
- TGI (SK-OV-3 ovarian): > 100 µM
- TGI (OVCAR-4 ovarian): > 79.4 µM
- TGI (SW-620 colon): > 100 µM
- TGI (SNB-19 CNS): > 100 µM
- TGI (786-0 renal): > 100 µM
- TGI (MDA-N): > 100 µM
- TGI (MALME-3M melanoma): > 82.5 µM
- TGI (SK-MEL-5 melanoma): 34.8 µM
- TGI (SK-MEL-28 melanoma): > 100 µM
- TGI (KM12 colon): > 100 µM
- TGI (MDA-MB-231 breast): > 100 µM
- TGI (SR leukemia): 24.5 µM
- TGI (MDA-MB-435): > 100 µM
- TGI (LOX IMVI melanoma): > 87 µM

Source: PubChem BioAssay (NCI)
